Assay results from article PMC11876601 (Molecular Systems Biology, 2025).
pEC50: −log10 of the molar value. “And” between values parts separate entries of the source, which are not always exact repeats. Identical values can stand only once. Like-named read-outs stand apart in the source and are kept apart here.

Test system: AsPC-1 cells
Assay: Cell proliferation assay, chemodrug + ATR inhibitor (Incucyte confluence, 72 h);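 further: underlying read-out for every value is AsPC-1 confluence after 72 h incubation at 37 °C and 5% CO2, divided by that well's starting confluence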
Conditions: for Ratio: Response / Response vehicle (mean)
[1] = AsPC-1, Experiment GEM (no ATRi), single replicates R1-R3, listed as 5-FU
[2] = AsPC-1, Experiment GEM+ATRi_dose1, single replicates R1-R3, listed as 5-FU
[3] = AsPC-1, Experiment GEM+ATRi_dose2, single replicates R1-R3, listed as 5-FU
[4] = AsPC-1, Experiment GEM+ATRi_dose3, single replicates R1-R3, listed as 5-FU
[5] = Drug 0 nM + ATRi 3 nM (ATRi alone, GEM+ATRi_dose1 series), replicates R1-R3, listed as 5-FU
[6] = Drug 0 nM + ATRi 10 nM (ATRi alone, GEM+ATRi_dose2 series), replicates R1-R3, listed as 5-FU
[7] = Drug 0 nM + ATRi 30 nM (ATRi alone, GEM+ATRi_dose3 series), replicates R1-R3, listed as 5-FU
[8] = Drug 1 nM + ATRi 3 nM (GEM+ATRi_dose1), replicates R1-R3, listed as 5-FU
[9] = Drug 1 nM + ATRi 10 nM (GEM+ATRi_dose2), replicates R1-R3, listed as 5-FU
[10] = Drug 1 nM + ATRi 30 nM (GEM+ATRi_dose3), replicates R1-R3, listed as 5-FU
[11] = Drug 3 nM + ATRi 3 nM (GEM+ATRi_dose1), replicates R1-R3, listed as 5-FU
[12] = Drug 3 nM + ATRi 30 nM (GEM+ATRi_dose3), replicates R1-R3, listed as 5-FU
[13] = Drug 3 nM alone, ATRi 0 nM (experiment 'GEM'), replicates R1-R3, listed as 5-FU
[14] = Drug 10 nM + ATRi 3 nM (GEM+ATRi_dose1), replicates R1-R3, listed as 5-FU
[15] = Drug 10 nM + ATRi 10 nM (GEM+ATRi_dose2), replicates R1-R3, listed as 5-FU
[16] = Drug 10 nM + ATRi 30 nM (GEM+ATRi_dose3), replicates R1-R3, listed as 5-FU
[17] = Drug 10 nM alone, ATRi 0 nM (experiment 'GEM'), replicates R1-R3, listed as 5-FU
[18] = Drug 30 nM + ATRi 3 nM (GEM+ATRi_dose1), replicates R1-R3, listed as 5-FU
[19] = Drug 30 nM + ATRi 10 nM (GEM+ATRi_dose2), replicates R1-R3, listed as 5-FU
[20] = Drug 30 nM + ATRi 30 nM (GEM+ATRi_dose3), replicates R1-R3, listed as 5-FU
[21] = Drug 100 nM + ATRi 3 nM (GEM+ATRi_dose1), replicates R1-R3
[22] = Drug 100 nM + ATRi 10 nM (GEM+ATRi_dose2), replicates R1-R3, listed as 5-FU
[23] = Drug 100 nM + ATRi 30 nM (GEM+ATRi_dose3), replicates R1-R3, listed as 5-FU
[24] = Drug 100 nM alone, ATRi 0 nM (experiment 'GEM'), replicates R1-R3, listed as 5-FU
[25] = Drug 300 nM + ATRi 3 nM (GEM+ATRi_dose1), replicates R1-R3
[26] = Drug 300 nM + ATRi 10 nM (GEM+ATRi_dose2), replicates R1-R3, listed as 5-FU
[27] = Drug 300 nM + ATRi 30 nM (GEM+ATRi_dose3), replicates R1-R3, listed as 5-FU
[28] = Drug 300 nM alone, ATRi 0 nM (experiment 'GEM'), replicates R1-R3, listed as 5-FU
[29] = Drug 1000 nM + ATRi 3 nM (GEM+ATRi_dose1), replicates R1-R3
[30] = Drug 1000 nM + ATRi 30 nM (GEM+ATRi_dose3), replicates R1-R3, listed as 5-FU
[31] = Drug 1000 nM alone, ATRi 0 nM (experiment 'GEM'), replicates R1-R3, listed as 5-FU
[32] = Drug 3000 nM + ATRi 3 nM (GEM+ATRi_dose1), replicates R1-R3
[33] = Drug 3000 nM + ATRi 10 nM (GEM+ATRi_dose2), replicates R1-R3, listed as 5-FU
[34] = Drug 3000 nM + ATRi 30 nM (GEM+ATRi_dose3), replicates R1-R3, listed as 5-FU
[35] = Drug 3000 nM alone, ATRi 0 nM (experiment 'GEM'), replicates R1-R3, listed as 5-FU
[36] = drug 100 nM + ATRi 3 nM, listed as 5-FU
[37] = drug 300 nM + ATRi 3 nM, listed as 5-FU
[38] = drug 1000 nM + ATRi 3 nM, listed as 5-FU
[39] = drug 3000 nM + ATRi 3 nM, listed as 5-FU

Description: Cells were seeded at 5000 cells/well into 96-well flat bottom plates (Eppendorf) and allowed to attach overnight. […] Cells were incubated for 72 h at 37 °C and 5% CO2. Cell confluence readouts at 72 h were either normalized to their initial confluence using the Incucyte software (AsPC-1) or used without prior normalization (all others). […] Each experiment was performed in triplicates, the data was plotted as mean ± standard deviation (s.d.).

O=c1[nH]cc(F)c(=O)[nH]1 [5-fluorouracil]
Curve bottom [1]: 1.02 and 1.01 and 1.04
Curve slope [1]: 1.53 and 1.20 and 1.02
Curve top [1]: 0.52 and 0.45 and 0.53
Curve bottom [2]: 1.03 and 1.04
Curve slope [2]: 1.17 and 1.72 and 2.53
Curve top [2]: 0.34 and 0.38 and 0.50
Curve bottom (AsPC-1, Experiment GEM+ATRi_dose2, single replicates R1-R3): 1.02
Curve slope [3]: 2.12 and 2.47 and 2.30
Curve top [3]: 0.44 and 0.42 and 0.41
Curve bottom [4]: 0.92 and 0.93 and 0.96
Curve slope [4]: 7.78 and 7.99 and 4.74
Curve top [4]: 0.42 and 0.41
Response [5]: 93.23 and 93.25
Response [6]: 93.23 and 93.25
Response [7]: 86.00 and 86.93
Response [8]: 93.84 and 90.46
Response [9]: 92.14 and 89.28
Response [10]: 85.34 and 86.33
Response (Drug 1 nM alone, ATRi 0 nM (experiment 'GEM'), replicates R1-R3, listed as 5-FU): 94.45
Response [11]: 93.43 and 94.40
Response (Drug 3 nM + ATRi 10 nM (GEM+ATRi_dose2), replicates R1-R3, listed as 5-FU): 92.25 and 90.36
Response [12]: 84.22 and 84.05
Response [13]: 90.32
Response [14]: 92.50 and 91.39
Response [15]: 91.53 and 89.96
Response [16]: 83.67 and 82.94
Response [17]: 89.98 and 90.52
Response [18]: 93.40 and 92.15
Response [19]: 91.74 and 91.80
Response [20]: 86.01 and 86.29
Response (Drug 30 nM alone, ATRi 0 nM (experiment 'GEM'), replicates R1-R3, listed as 5-FU): 91.55 and 89.05
Response [21]: 92.03
Response [22]: 90.88 and 90.27
Response [23]: 85.31 and 85.49
Response [24]: 92.05 and 91.30
Response [25]: 79.74
Response [26]: 62.48 and 67.47
Response [27]: 51.19 and 52.50
Response [28]: 82.78 and 83.05
Response [29]: 50.06
Response (Drug 1000 nM + ATRi 10 nM (GEM+ATRi_dose2), replicates R1-R3, listed as 5-FU): 44.01 and 42.89
Response [30]: 38.74 and 41.39
Response [31]: 71.08 and 72.31
Response [32]: 44.54
Response [33]: 35.64 and 36.17
Response [34]: 35.72 and 32.91
Response [35]: 54.65 and 60.00
pEC50 (Homo sapiens, ASPC1, 72 h, AsPC-1, Experiment GEM (no ATRi), single replicates R1-R3): 5.99
EC50 (Homo sapiens, ASPC1, 72 h, read-out: EC50 mean [nM], AsPC-1, Experiment GEM (no ATRi), mean of R1-R3, repeated in each replicate line): 1190 nM
EC50 (Homo sapiens, ASPC1, 72 h, read-out: pEC50, AsPC-1 (converted), Experiment GEM (no ATRi), single replicates R1-R3): 1020 nM
EC50 (Homo sapiens, ASPC1, read-out: EC50 mean [nM], AsPC-1, Experiment GEM (no ATRi), mean of R1-R3, repeated in each replicate line): 1190 nM
EC50 (Homo sapiens, ASPC1, read-out: EC50 mean [nM], AsPC-1, Experiment GEM+ATRi_dose1, mean of R1-R3, repeated in each replicate line): 619 nM
EC50 (Homo sapiens, ASPC1, read-out: EC50 mean [nM], AsPC-1, Experiment GEM+ATRi_dose2, mean of R1-R3, repeated in each replicate line): 326 nM
EC50 (Homo sapiens, ASPC1, read-out: EC50 mean [nM], AsPC-1, Experiment GEM+ATRi_dose3, mean of R1-R3, repeated in each replicate line): 266 nM
Ratio [5]: 1.02 and 1.04
Ratio [6]: 1.02 and 1.04
Ratio [7]: 0.94 and 0.97
Ratio [8]: 1.03 and 1.01
Ratio [9]: 1.01 and 1.00
Ratio [10]: 0.94 and 0.97
Ratio (Drug 1 nM alone, ATRi 0 nM (experiment 'GEM'), replicates R1-R3): 1.04
Ratio [11]: 1.03 and 1.06
Ratio (Drug 3 nM + ATRi 10 nM (GEM+ATRi_dose2), replicates R1-R3): 1.01
Ratio [12]: 0.92 and 0.94
Ratio [13]: 0.99 and 1.05
Ratio [14]: 1.01 and 1.02
Ratio [15]: 1.00 and 1.01
Ratio [16]: 0.92 and 0.93
Ratio [17]: 0.99 and 1.01
Ratio [18]: 1.02 and 1.03
Ratio [19]: 1.01 and 1.03
Ratio [20]: 0.94 and 0.97
Ratio (Drug 30 nM alone, ATRi 0 nM (experiment 'GEM'), replicates R1-R3): 1.00
Ratio [21]: 1.03
Ratio [22]: 1.00 and 1.01
Ratio [23]: 0.94 and 0.96
Ratio [24]: 1.01 and 1.02
Ratio [25]: 0.89
Ratio [26]: 0.69 and 0.76
Ratio [27]: 0.56 and 0.59
Ratio [28]: 0.91 and 0.93
Ratio [29]: 0.56
Ratio (Drug 1000 nM + ATRi 10 nM (GEM+ATRi_dose2), replicates R1-R3): 0.48
Ratio [30]: 0.43 and 0.46
Ratio [31]: 0.78 and 0.81
Ratio [32]: 0.50
Ratio [33]: 0.39 and 0.41
Ratio [34]: 0.39 and 0.37
Ratio [35]: 0.60 and 0.67
Ratio (drug 1 nM + ATRi 3 nM): 1.05
Ratio (drug 1 nM + ATRi 10 nM): 1.03
Ratio (drug 1 nM + ATRi 30 nM): 0.93
Ratio (drug 1 nM alone (ATRi 0 nM)): 1.02
Ratio (drug 3 nM + ATRi 3 nM): 1.01
Ratio (drug 3 nM + ATRi 10 nM): 0.98
Ratio (drug 3 nM + ATRi 30 nM): 0.92
Ratio (drug 3 nM alone (ATRi 0 nM)): 1.00
Ratio (drug 10 nM + ATRi 3 nM): 1.01
Ratio (drug 10 nM + ATRi 10 nM): 1.01
Ratio (drug 10 nM + ATRi 30 nM): 0.91
Ratio (drug 10 nM alone (ATRi 0 nM)): 1.02
Ratio (drug 30 nM + ATRi 3 nM): 1.02
Ratio (drug 30 nM + ATRi 10 nM): 1.00
Ratio (drug 30 nM + ATRi 30 nM): 0.94
Ratio (drug 30 nM alone (ATRi 0 nM)): 1.02
Ratio [36]: 1.02 and 1.04
Ratio (drug 100 nM + ATRi 10 nM): 1.01
Ratio (drug 100 nM + ATRi 30 nM): 0.92
Ratio (drug 100 nM alone (ATRi 0 nM)): 1.03
Ratio [37]: 0.84 and 0.85
Ratio (drug 300 nM + ATRi 10 nM): 0.76
Ratio (drug 300 nM + ATRi 30 nM): 0.58
Ratio (drug 300 nM alone (ATRi 0 nM)): 0.95
Ratio [38]: 0.66 and 0.57
Ratio (drug 1000 nM + ATRi 10 nM): 0.52
Ratio (drug 1000 nM + ATRi 30 nM): 0.43
Ratio (drug 1000 nM alone (ATRi 0 nM)): 0.78
Ratio [39]: 0.46 and 0.41
Ratio (drug 3000 nM + ATRi 10 nM): 0.43
Ratio (drug 3000 nM + ATRi 30 nM): 0.42
Ratio (drug 3000 nM alone (ATRi 0 nM)): 0.60
sensitization of AsPC-1 cells to the chemodrug by Elimusertib (chemodrug + three sub-EC50 doses of Elimusertib): sensitized
Response (drug 1 nM + ATRi 3 nM): 97.06
Response (drug 1 nM + ATRi 10 nM): 94.90
Response (drug 1 nM + ATRi 30 nM): 85.74
Response (drug 1 nM alone (ATRi 0 nM)): 94.29
Response (drug 3 nM + ATRi 3 nM): 93.28
Response (drug 3 nM + ATRi 10 nM): 90.39
Response (drug 3 nM + ATRi 30 nM): 84.88
Response (drug 3 nM alone (ATRi 0 nM)): 92.53
Response (drug 10 nM + ATRi 3 nM): 93.05
Response (drug 10 nM + ATRi 10 nM): 92.81
Response (drug 10 nM + ATRi 30 nM): 83.72
Response (drug 10 nM alone (ATRi 0 nM)): 93.59
Response (drug 30 nM + ATRi 3 nM): 93.52
Response (drug 30 nM + ATRi 10 nM): 91.78
Response (drug 30 nM + ATRi 30 nM): 86.53
Response (drug 30 nM alone (ATRi 0 nM)): 94.07
Response [36]: 94.22 and 94.47
Response (drug 100 nM + ATRi 10 nM): 93.45
Response (drug 100 nM + ATRi 30 nM): 85.12
Response (drug 100 nM alone (ATRi 0 nM)): 94.67
Response [37]: 77.35 and 77.27
Response (drug 300 nM + ATRi 10 nM): 69.87
Response (drug 300 nM + ATRi 30 nM): 53.83
Response (drug 300 nM alone (ATRi 0 nM)): 87.11
Response [38]: 61.14 and 51.57
Response (drug 1000 nM + ATRi 10 nM): 47.87
Response (drug 1000 nM + ATRi 30 nM): 39.31
Response (drug 1000 nM alone (ATRi 0 nM)): 71.77
Response [39]: 42.27 and 37.14
Response (drug 3000 nM + ATRi 10 nM): 39.36
Response (drug 3000 nM + ATRi 30 nM): 38.38
Response (drug 3000 nM alone (ATRi 0 nM)): 55.50
